Reference: patent publication US9695155B2, “Herbicidal substituted pyrimidinyloxy benzene compounds” (E. I. DU PONT DE NEMOURS AND COMPANY, priority 2013, dated 2017)

Key:
[1] = test system: kochia; assay: Test D postemergence; format: in vivo, Kochia scoparia; details: Bassia scoparia, post-emergence; for pest or weed control at 16 g/ha: 16 g ai/ha, scale 0-100, read-out: Plant response rating, Kochia; for pest or weed control at 31 g/ha: 31 g ai/ha; for pest or weed control at 62 g/ha: 62 g ai/ha; for pest or weed control at 125 g/ha: 125 g ai/ha
Procedure, shortened: (§1)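 Visual rating vs untreated controls, 0 = no effect, 100 = complete control, taken 7–21 d after treatment. Pre: silt loam soil. Post: potting medium, plants 2–18 cm, 1–4 leaf. Formulation: non-phytotoxic solvent mix + surfactant.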

[2] = test system: blackgrass; assay: Test D postemergence; format: in vivo, Alopecurus myosuroides; details: Alopecurus myosuroides, post-emergence, Postemergence, scale 0 to 100 (0 no effect, 100 complete control), read-out: Plant response rating, Blackgrass; for pest or weed control at 62 g/ha: 62 g ai/ha; for pest or weed control at 16 g/ha: 16 g ai/ha; for pest or weed control at 31 g/ha: 31 g ai/ha
Procedure, shortened: as §1

[3] = test system: canarygrass; assay: Test D postemergence; format: in vivo, Phalaris minor; details: Phalaris minor, post-emergence; for pest or weed control at 16 g/ha: 16 g ai/ha, scale 0-100, read-out: Plant response rating, Canarygrass; for pest or weed control at 31 g/ha: 31 g ai/ha; for pest or weed control at 62 g/ha: 62 g ai/ha; for pest or weed control at 125 g/ha: 125 g ai/ha
Procedure, shortened: as §1

[4] = test system: lambsquarters; assay: Test D preemergence; format: in vivo, Chenopodium album; details: Chenopodium album, pre-emergence; for pest or weed control at 16 g/ha: 16 g ai/ha, scale 0 (no effect) to 100 (complete control), read-out: Plant response rating, Lambsquarters; for pest or weed control at 31 g/ha: 31 g ai/ha; for pest or weed control at 62 g/ha: 62 g ai/ha; for pest or weed control at 125 g/ha: 125 g ai/ha
Procedure, shortened: as §1

[5] = test system: field violet; assay: Test D preemergence; format: in vivo, Viola arvensis; details: Viola arvensis, pre-emergence; for pest or weed control at 16 g/ha: 16 g ai/ha, scale 0 (no effect) to 100 (complete control), read-out: Plant response rating, Field Violet; for pest or weed control at 62 g/ha: 62 g ai/ha; for pest or weed control at 125 g/ha: 125 g ai/ha
Procedure, shortened: as §1

[6] = test system: deadnettle; assay: Test D preemergence; format: in vivo, Lamium amplexicaule; details: Lamium amplexicaule, pre-emergence; for pest or weed control at 16 g/ha: 16 g ai/ha, scale 0 (no effect) to 100 (complete control), read-out: Plant response rating, Deadnettle; for pest or weed control at 31 g/ha: 31 g ai/ha; for pest or weed control at 62 g/ha: 62 g ai/ha; for pest or weed control at 125 g/ha: 125 g ai/ha
Procedure, shortened: as §1

[7] = test system: galium; assay: Test D postemergence; format: in vivo, Galium aparine; details: Galium, post-emergence; for pest or weed control at 16 g/ha: 16 g ai/ha, scale 0-100, read-out: Plant response rating, Galium; for pest or weed control at 31 g/ha: 31 g ai/ha; for pest or weed control at 62 g/ha: 62 g ai/ha; for pest or weed control at 125 g/ha: 125 g ai/ha
Procedure, shortened: as §1

[8] = test system: oilseed rape; assay: Test D postemergence; format: in vivo, Brassica napus; details: Brassica napus, post-emergence; for plant injury at 16 g/ha: 16 g ai/ha, scale 0-100, read-out: Plant response rating, Oilseed Rape; for plant injury at 31 g/ha: 31 g ai/ha; for plant injury at 62 g/ha: 62 g ai/ha; for plant injury at 125 g/ha: 125 g ai/ha
Procedure, shortened: as §1

[9] = test system: wild oat; assay: Test D postemergence; format: in vivo, Avena fatua; details: Avena fatua, post-emergence; for pest or weed control at 16 g/ha: 16 g ai/ha, scale 0-100, read-out: Plant response rating, Oat, Wild; for pest or weed control at 31 g/ha: 31 g ai/ha; for pest or weed control at 62 g/ha: 62 g ai/ha; for pest or weed control at 125 g/ha: 125 g ai/ha
Procedure, shortened: as §1

[10] = test system: green foxtail; assay: Test D postemergence; format: in vivo, Setaria viridis; details: Setaria viridis, post-emergence; for pest or weed control at 16 g/ha: 16 g ai/ha, scale 0-100, read-out: Plant response rating, Foxtail, Green; for pest or weed control at 31 g/ha: 31 g ai/ha; for pest or weed control at 62 g/ha: 62 g ai/ha; for pest or weed control at 125 g/ha: 125 g ai/ha
Procedure, shortened: as §1

[11] = test system: lambsquarters; assay: Test D postemergence; format: in vivo, Chenopodium album; details: Chenopodium album, post-emergence; for pest or weed control at 16 g/ha: 16 g ai/ha, scale 0-100, read-out: Plant response rating, Lambsquarters; for pest or weed control at 31 g/ha: 31 g ai/ha; for pest or weed control at 62 g/ha: 62 g ai/ha; for pest or weed control at 125 g/ha: 125 g ai/ha
Procedure, shortened: as §1

[12] = scale 0 to 100 (0 no effect, 100 complete control), read-out: Plant response rating, Kochia
[13] = scale 0 to 100 (0 no effect, 100 complete control), read-out: Plant response rating, Canarygrass
[14] = scale 0-100, read-out: Plant response rating, Lambsquarters
[15] = scale 0-100, read-out: Plant response rating, Field Violet
[16] = scale 0-100, read-out: Plant response rating, Deadnettle
[17] = scale 0 to 100 (0 no effect, 100 complete control), read-out: Plant response rating, Galium
[18] = scale 0 to 100 (0 no effect, 100 complete control), read-out: Plant response rating, Oilseed Rape
[19] = scale 0 to 100 (0 no effect, 100 complete control), read-out: Plant response rating, Oat, Wild
[20] = scale 0 to 100 (0 no effect, 100 complete control), read-out: Plant response rating, Foxtail, Green
[21] = scale 0 to 100 (0 no effect, 100 complete control), read-out: Plant response rating, Lambsquarters

## FC(F)(F)c1cnn(-c2ccccc2Oc2ncc(Br)cn2)c1 [Compound 18, 5-bromo-2-[2-[4-(trifluoromethyl)-1H-pyrazol-1-yl]phenoxy]pyrimidine]
[1]
  pest or weed control at 16 g/ha: 35%
[1]; [12]
  pest or weed control at 31 g/ha: 85%
  pest or weed control at 62 g/ha: 90%
  pest or weed control at 125 g/ha: 100%
[1]; 250 g ai/ha, scale 0 to 100 (0 no effect, 100 complete control), read-out: Plant response rating, Kochia
  pest or weed control at 250 g/ha: 100%
[2]
  pest or weed control at 62 g/ha: 15%
  pest or weed control at 16 g/ha: 10%
  pest or weed control at 31 g/ha: 15%
[2]; 125 g ai/ha
  pest or weed control at 125 g/ha: 20%
[2]; 250 g ai/ha
  pest or weed control at 250 g/ha: 35%
[3]
  pest or weed control at 16 g/ha: 10%
[3]; [13]
  pest or weed control at 31 g/ha: 15%
  pest or weed control at 62 g/ha: 15%
  pest or weed control at 125 g/ha: 20%
[3]; 250 g ai/ha, scale 0 to 100 (0 no effect, 100 complete control), read-out: Plant response rating, Canarygrass
  pest or weed control at 250 g/ha: 35%
[4]
  pest or weed control at 16 g/ha: 70%
[4]; [14]
  pest or weed control at 31 g/ha: 80%
  pest or weed control at 62 g/ha: 100%
  pest or weed control at 125 g/ha: 100%
[4]; 250 g ai/ha, scale 0-100, read-out: Plant response rating, Lambsquarters
  pest or weed control at 250 g/ha: 100%
[5]
  pest or weed control at 16 g/ha: 65%
[5]; 31 g ai/ha, scale 0-100, read-out: Plant response rating, Field Violet
  pest or weed control at 31 g/ha: 70%
[5]; [15]
  pest or weed control at 62 g/ha: 85%
  pest or weed control at 125 g/ha: 85%
[5]; 250 g ai/ha, scale 0-100, read-out: Plant response rating, Field Violet
  pest or weed control at 250 g/ha: 90%
[6]
  pest or weed control at 16 g/ha: 10%
[6]; [16]
  pest or weed control at 31 g/ha: 5%
  pest or weed control at 62 g/ha: 55%
  pest or weed control at 125 g/ha: 70%
[6]; 250 g ai/ha, scale 0-100, read-out: Plant response rating, Deadnettle
  pest or weed control at 250 g/ha: 100%
[7]
  pest or weed control at 16 g/ha: 40%
[7]; [17]
  pest or weed control at 31 g/ha: 60%
  pest or weed control at 62 g/ha: 70%
  pest or weed control at 125 g/ha: 65%
[7]; 250 g ai/ha, scale 0 to 100 (0 no effect, 100 complete control), read-out: Plant response rating, Galium
  pest or weed control at 250 g/ha: 70%
[8]
  plant injury at 16 g/ha: 35%
[8]; [18]
  plant injury at 31 g/ha: 70%
  plant injury at 62 g/ha: 100%
  plant injury at 125 g/ha: 100%
[8]; 250 g ai/ha, scale 0 to 100 (0 no effect, 100 complete control), read-out: Plant response rating, Oilseed Rape
  plant injury at 250 g/ha: 100%
[9]
  pest or weed control at 16 g/ha: 10%
[9]; [19]
  pest or weed control at 31 g/ha: 10%
  pest or weed control at 62 g/ha: 15%
  pest or weed control at 125 g/ha: 20%
[9]; 250 g ai/ha, scale 0 to 100 (0 no effect, 100 complete control), read-out: Plant response rating, Oat, Wild
  pest or weed control at 250 g/ha: 25%
[10]
  pest or weed control at 16 g/ha: 10%
[10]; [20]
  pest or weed control at 31 g/ha: 10%
  pest or weed control at 62 g/ha: 15%
  pest or weed control at 125 g/ha: 20%
[10]; 250 g ai/ha, scale 0 to 100 (0 no effect, 100 complete control), read-out: Plant response rating, Foxtail, Green
  pest or weed control at 250 g/ha: 25%
[11]
  pest or weed control at 16 g/ha: 15%
[11]; [21]
  pest or weed control at 31 g/ha: 50%
  pest or weed control at 62 g/ha: 90%
  pest or weed control at 125 g/ha: 95%
[11]; 250 g ai/ha, scale 0 to 100 (0 no effect, 100 complete control), read-out: Plant response rating, Lambsquarters
  pest or weed control at 250 g/ha: 95%

## Fc1cccc(Oc2ncc(Cl)cn2)c1-n1cc(Br)cn1 [Compound 178, 2-[2-(4-bromo-1H-pyrazol-1-yl)-3-fluorophenoxy]-5-chloropyrimidine]
[1]
  pest or weed control at 16 g/ha: 60%
[1]; [12]
  pest or weed control at 31 g/ha: 70%
  pest or weed control at 62 g/ha: 75%
  pest or weed control at 125 g/ha: 85%
[2]
  pest or weed control at 62 g/ha: 25%
  pest or weed control at 16 g/ha: 5%
  pest or weed control at 31 g/ha: 10%
[3]
  pest or weed control at 16 g/ha: 5%
[3]; [13]
  pest or weed control at 31 g/ha: 15%
  pest or weed control at 62 g/ha: 20%
  pest or weed control at 125 g/ha: 35%
[4]
  pest or weed control at 16 g/ha: 20%
[4]; [14]
  pest or weed control at 31 g/ha: 70%
  pest or weed control at 62 g/ha: 80%
  pest or weed control at 125 g/ha: 85%
[5]
  pest or weed control at 16 g/ha: 20%
[5]; [15]
  pest or weed control at 62 g/ha: 90%
  pest or weed control at 125 g/ha: 100%
[6]
  pest or weed control at 16 g/ha: 50%
[6]; [16]
  pest or weed control at 31 g/ha: 60%
  pest or weed control at 62 g/ha: 75%
  pest or weed control at 125 g/ha: 100%
[7]
  pest or weed control at 16 g/ha: 75%
[7]; [17]
  pest or weed control at 31 g/ha: 75%
  pest or weed control at 62 g/ha: 75%
  pest or weed control at 125 g/ha: 80%
[8]
  plant injury at 16 g/ha: 60%
[8]; [18]
  plant injury at 31 g/ha: 65%
  plant injury at 62 g/ha: 80%
  plant injury at 125 g/ha: 90%
[9]
  pest or weed control at 16 g/ha: 20%
[9]; [19]
  pest or weed control at 31 g/ha: 25%
  pest or weed control at 62 g/ha: 25%
  pest or weed control at 125 g/ha: 25%
[10]
  pest or weed control at 16 g/ha: 15%
[10]; [20]
  pest or weed control at 31 g/ha: 20%
  pest or weed control at 62 g/ha: 30%
  pest or weed control at 125 g/ha: 35%
[11]
  pest or weed control at 16 g/ha: 65%
[11]; [21]
  pest or weed control at 31 g/ha: 70%
  pest or weed control at 62 g/ha: 75%
  pest or weed control at 125 g/ha: 85%
